“Also recorded” adds a separate entry of the source. Like-named read-outs stand apart in the source and are kept apart here.
Columns and labels:
SOX-9 = assay: Anabolic gene expression in normal human primary chondrocytes, quantitative real-time PCR (SOX-9); assay type: cell-based; details: carnosol at 1 µmol/L
Procedure: (§1) Influence of carnosol on the expression of genes involved in the build-up and break-down of cartilage. Carnosol of >= 95% purity prepared as disclosed in example 1 was used.
(§2) The effect of carnosol on the expression of human collagen, aggrecan and MMP genes was measured in vitro in normal human chondrocytes (derived from knee). Control experiments without carnosol were done concomitantly to compare the expression of these genes or proteins to that in un-stimulated cells. The effect of carnosol (at 1 µmol/L) on the expression of anabolic genes (see Table B) was measured in normal human chondrocytes obtained from the knee of healthy donors (HNAC-kn, Cambrex, #CC2250). These primary chondrocytes were passaged in vitro not more than 4 times, before being used for experiments. Cells were cultured in differentiation medium (Cambrex, #CC.3225) for 5 - 10 days. Total RNA was extracted from cultured cells and reverse-transcribed; expression levels of distinct genes were determined by quantitative real-time PCR as detailed by Richard et al. Mol. Nutr. Food Res. 49, 431-442, (2005).
(§3) Effect of carnosol on anabolic gene expression in normal human primary chondrocytes Numbers indicate the level of gene expression (in % of control-treated cells)

Collagen II [1] = assay: Anabolic gene expression in normal human primary chondrocytes, quantitative real-time PCR (collagen II); assay type: cell-based; details: carnosol at 1 µmol/L; for activity at 1 µM: Chondrocyte, normal human chondrocytes (knee), differentiation medium
Procedure: as §1, §2, §3

Aggrecan = assay: Anabolic gene expression in normal human primary chondrocytes, quantitative real-time PCR (aggrecan); assay type: cell-based; details: carnosol at 1 µmol/L; for activity at 1 µM: Chondrocyte, normal human chondrocytes (knee), differentiation medium
Procedure: as §1, §2, §3

Collagen II [2] = assay: Cellular collagen II production in chondrocytes, ELISA; assay type: cell-based, human; details: 20 µmol/L carnosol; for Effect of carnosol on protein expression: 10 days of culture, collagen II, result in words
Procedure: The increased build-up of the ECM has been directly shown by measuring the production of collagen II. To this aim, chondrocytes were cultured in differentiation medium containing 20 µmol/L carnosol for 10 days. Cellular collagen II was then quantified by enzyme linked immunosorbent assay (ELISA). […]

SOX-5 = assay: Anabolic gene expression in normal human primary chondrocytes, quantitative real-time PCR (SOX-5); assay type: cell-based; details: carnosol at 1 µmol/L; for activity at 1 µM: Chondrocyte, normal human chondrocytes (knee), differentiation medium
Procedure: as §1, §2, §3

Collagen I = assay: Anabolic gene expression in normal human primary chondrocytes, quantitative real-time PCR (collagen I); assay type: cell-based; details: carnosol at 1 µmol/L; for activity at 1 µM: Chondrocyte, normal human chondrocytes (knee), differentiation medium
Procedure: as §1, §2, §3

[3] = normal human chondrocytes, result in words

CC(C)c1cc2c(c(O)c1O)[C@@]13CCCC(C)(C)[C@@H]1C[C@@H]2OC3=O [Carnosol, 2H-9,4a-(Epoxymethano)phenanthren-12-one]
mrna remaining at 1 µM (SOX-9; Chondrocyte, 120 h, normal human chondrocytes (knee), differentiation medium, 5 days culture, read-out: level of gene expression, SOX-9, 5 days culture): 112%
SOX-9 gene expression, % of control at 1 µM (SOX-9; Chondrocyte, 240 h, normal human chondrocytes (knee), differentiation medium, 10 days culture, read-out: level of gene expression, SOX-9, 10 days culture): 93%
effect of carnosol on gene expression, SOX-9 (SOX-9; [3]): enhanced; also recorded: Increased
activity at 1 µM (Collagen II [1]; 120 h, 5 days culture, read-out: level of gene expression, Collagen II, 5 days culture): 128%
activity at 1 µM (Collagen II [1]; 240 h, 10 days culture, read-out: level of gene expression, Collagen II, 10 days culture): 189%
effect of carnosol on gene expression, Collagen II (Collagen II [1]; [3]): substantially increased
activity at 1 µM (Aggrecan; 120 h, 5 days culture, read-out: level of gene expression, Aggrecan, 5 days culture): 139%
activity at 1 µM (Aggrecan; 240 h, 10 days culture, read-out: level of gene expression, Aggrecan, 10 days culture): 97%
effect of carnosol on gene expression, Aggrecan (Aggrecan; [3]): substantially increased
Effect of carnosol on protein expression (Collagen II [2]): Increased
Effect of carnosol on protein expression (Collagen II [2]; listed as carnosol): significantly increased
activity at 20 µM (Collagen II [2]; Homo sapiens, Chondrocyte, 240 h, 10 days of culture in differentiation medium, cellular collagen II by ELISA, vehicle = 100): 129%
activity at 1 µM (SOX-5; 120 h, 5 days culture, read-out: level of gene expression, SOX-5, 5 days culture): 85%
activity at 1 µM (SOX-5; 240 h, 10 days culture, read-out: level of gene expression, SOX-5, 10 days culture): 126%
effect of carnosol on gene expression, SOX-5 (SOX-5; [3]): enhanced; also recorded: Increased
activity at 1 µM (Collagen I; 120 h, 5 days culture, read-out: level of gene expression, Collagen I, 5 days culture): 207%
activity at 1 µM (Collagen I; 240 h, 10 days culture, read-out: level of gene expression, Collagen I, 10 days culture): 98%
effect of carnosol on gene expression, Collagen I (Collagen I; [3]): Increased
